Experimental data from patent US20110280815A1, “COMPOSITION FOR INHIBITING MELANIN PRODUCTION AND APPLICATION THEREOF” (priority 2010, published 2011).
Like-named read-outs stand apart in the source and are kept apart here.

Legend:
B16-F1 cells = assay: Inhibiting melanin in cell line model, mouse melanoma B16-F1; format: cell-based; settings: for inhibition of melanin production of mouse melanoma (microscopic image): 200 μg/ml, cultured 72 hours (FIG. 2); for inhibition at 200 µg/mL: Mus musculus, B16-F1, 200 μg/mL in medium
Method: (§1) In this example, the tyrosinase inhibitor of the present invention was used to inhibit melanin production in melanocytes. The cell lines used in this example are mouse melanoma (B16-F1; ATCC CRL-6323) and human epidermal melanocyte (HEM). After 72 hours, cells and cell culture medium were collected separately. Then, the collected cells were destroyed by ultrasonic for melanin examination.

[1] = test system: human epidermal melanocyte (HEM); assay: Inhibiting melanin in cell line model, human epidermal melanocyte (HEM); format: cell-based; settings: 200 μg/mL in medium, 72 hours, compared with blank control group (FIG. 5)
Method: as §1

tyrosinase = assay: Inhibiting tyrosinase (L-Dopa oxidation, dopachrome absorption at 492 nm); format: biochemical; settings: series diluted sample, 0.1 U tyrosinase, 1 mM L-Dopa, 37° C., compared with blank control group (FIG. 1)
Method: In this example, 90 μL of 0.1 U tyrosinase solution was added in to the wells of a 96-well plate. Then, 50 μL of a series diluted sample was added into the wells as an experimental group or as a blank control group, wherein said sample is MOPS, SB-12(N-Dodecyl-N,N-dimethyl-3-ammonio-1-propanesulfonate), ACES or Tris-HCl, and 0.1 M phosphate buffer and a substance lysis solution were used as blank tests for the experimental group and the blank control group, respectively. Each sample in the experiment was at least triplicated. The test plate was placed at 37° C., 400 rpm for 5 min to mix the contents thereof homogeneously. Then, the test plate was placed into a machine for an absorption examination (492 nm). An average of two detected data was obtained as a background value. The test plate was then taken out, and 60 μL of 1 mM L-Dopa solution was added into each well. […] At this time, an average of two detected data was obtained as a test value.
In example 1, by using the tyrosinase inhibitor of the present invention, tyrosinase was inhibited to prevent melanin production. […] Accordingly, in this example, the absorption of the reaction at 492 nm was detected for examining the production of dopaquinone.
The data in the figure was calculated by the following formula: […]

[2] = 72 hours (FIG. 3), read-out: ability of inhibiting melanin production of B16-F1 cells
[3] = 72 hours, cell culture medium (FIG. 4), read-out: ability of inhibiting melanin secretion of B16-F1 cells

SMILES	inhibition of melanin production of mouse melanoma (microscopic image) (B16-F1 cells)	inhibition at 200 µg/mL (B16-F1 cells; [2]) [%]	inhibition at 200 µg/mL (B16-F1 cells; [3]) [%]	inhibition rate of melanin production of human epidermal melanocyte [1]	inhibition of tyrosinase activity (tyrosinase)
NC(=O)CNCCS(=O)(=O)O [ACES, N-(2-Acetamido)-2-aminoethanesulfonic acid]	significantly inhibit	35	38.9	inhibition rate was increased	significantly inhibit the activity of tyrosinase
O=S(=O)(O)CCCN1CCOCC1 [MOPS, 3-(N-Morpholino) propanesulfonic acid]	significantly inhibit	41.7	42.3	inhibition rate was increased	significantly inhibit the activity of tyrosinase
